Measurements from publication PMC8325347, “Evolution of a σ–(c-di-GMP)–anti-σ switch” (Proceedings of the National Academy of Sciences of the …, 2021).

Columns and labels:
RsiGCw = target: T1, RsiGCw (Conexibacter woesei, UniProt D3EZE5); experiment: fluorescence polarization; assay type: binding; settings: 25 mM Tris-HCl pH 7.5, 150 mM NaCl, 25 °C, 1 nM probe; RsiG alone; labelled compound
T1 construct: gene Cwoe_3492; full-length single-motif RsiG; pET15b, E. coli C41(DE3), His-tag cut with thrombin; homodimer (two-hybrid)
T1 sequence (D3EZE5 1-84): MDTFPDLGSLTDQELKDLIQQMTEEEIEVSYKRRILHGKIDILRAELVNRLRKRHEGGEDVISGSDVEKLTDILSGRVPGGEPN

RsiGRr = target: T2, RsiGRr (Rubrobacter radiotolerans, UniProt Z9BF25KB68); experiment: fluorescence polarization; assay type: binding; settings: 25 mM Tris-HCl pH 7.5, 150 mM NaCl, 25 °C, 1 nM probe; RsiG alone; labelled compound
T2 construct: full-length single-motif RsiG, 118 residues (a 27-106 construct was made for apo crystals only); pET15b, E. coli C41(DE3), His-tag cut with thrombin; homodimer
T2 sequence (Z9BF25KB68 1-118): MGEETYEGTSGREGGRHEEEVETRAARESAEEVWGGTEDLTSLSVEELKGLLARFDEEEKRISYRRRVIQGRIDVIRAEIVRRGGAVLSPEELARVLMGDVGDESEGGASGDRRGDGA

RsiGCw+WhiGCw = target: T3, RsiGCw+WhiGCw (Conexibacter woesei, UniProt D3EZE5); experiment: fluorescence polarization; assay type: binding; settings: 25 mM Tris-HCl pH 7.5, 150 mM NaCl, 25 °C, 1 nM probe; RsiG with WhiG; labelled compound
T3 construct: gene Cwoe_3492; RsiG and WhiG coexpressed from pCOLADuet-1 in E. coli C41(DE3), His-tag on RsiG cut with thrombin; stoichiometry by analogy with the R. radiotolerans complex
T3 sequence (D3EZE5 1-84): T1 sequence (D3EZE5 1-84)
T3 sequence (UPI0011D1D740 1-268 partner): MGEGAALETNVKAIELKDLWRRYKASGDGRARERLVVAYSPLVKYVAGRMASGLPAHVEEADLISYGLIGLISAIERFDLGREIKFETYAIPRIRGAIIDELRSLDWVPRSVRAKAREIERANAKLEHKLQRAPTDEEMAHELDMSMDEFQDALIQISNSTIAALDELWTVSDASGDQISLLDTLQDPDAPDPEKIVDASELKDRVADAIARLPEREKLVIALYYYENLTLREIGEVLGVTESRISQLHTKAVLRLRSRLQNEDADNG

[1] = target: T4, RsiGRr+WhiGRr; Rr (RsiG)2–(c-di-GMP)2–WhiG complex (Rubrobacter radiotolerans, UniProt A0A023X3C8+Z9BF25KB68); experiment: fluorescence polarization; assay type: binding; settings: 25 mM Tris-HCl pH 7.5, 150 mM NaCl, 25 °C, 1 nM probe; RsiG with WhiG; labelled compound
T4 construct: RsiG and WhiG coexpressed from pCOLADuet-1 in E. coli C41(DE3), His-tag on RsiG cut with thrombin; complex of RsiG homodimer and one WhiG
T4 sequence (Z9BF25KB68 1-118): T2 sequence (Z9BF25KB68 1-118)
T4 sequence (A0A023X3C8 1-273): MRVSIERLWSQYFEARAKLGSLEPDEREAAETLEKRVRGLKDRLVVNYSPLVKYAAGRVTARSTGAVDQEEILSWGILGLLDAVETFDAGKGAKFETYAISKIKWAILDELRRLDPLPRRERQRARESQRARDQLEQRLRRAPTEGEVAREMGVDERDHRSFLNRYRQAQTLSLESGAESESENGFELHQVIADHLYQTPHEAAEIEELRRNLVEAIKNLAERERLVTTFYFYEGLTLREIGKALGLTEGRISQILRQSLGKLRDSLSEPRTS

[2] = target: RsiGRr(27-106) (Rubrobacter radiotolerans); experiment: crystal structure; apo RsiGRr crystal form 2; 0.1 sodium acetate pH 4.5, 2.5 M NaCl, 0.2 M lithium sulfate, 0.1 M MgCl2; molecular replacement, 2.55 Å
[3] = target: RsiG from Rubrobacter radiotolerans (RsiGRr), co-purified with WhiGRr, His-tag cleaved (Rubrobacter radiotolerans); experiment: crystal structure; Rr (RsiG)2-(c-di-GMP)2-WhiG complex, 2.93 Å; 0.1 M Tris pH 8.0, 0.2 M MgCl2, 23% PEG 3350; c-di-GMP copurified from E. coli, none added
[4] = target: RsiGRr(27-106) (L52M-I69M), selenomethionine substituted (Rubrobacter radiotolerans); experiment: crystal structure; apo RsiGRr crystal form 1; 0.1 M imidazole pH 8.0, 12% isopropyl alcohol, 0.1 M MgCl2; selenomethionine SAD, 1.86 Å; six molecules in the ASU forming three dimers

## 2′-O-(6-[Fluoresceinyl]aminohexylcarbamoyl)-cyclic diguanosine monophosphate [2′-Fluo-AHC–c-di-GMP]
RsiGCw
  Kd: 25 ± 2 µM
RsiGRr
  Kd: 12 ± 3 µM
RsiGCw+WhiGCw
  Kd: 1.7 ± 0.3 µM
[1]
  Kd: 0.9 ± 0.05 µM

## RsiGRr(27-106) (domain or fragment)
[2]
  stoichiometry N: 2

## RsiG from Rubrobacter radiotolerans (RsiGRr), co-purified with WhiGRr, His-tag cleaved (natural protein)
[3]
  stoichiometry N: 2

## RsiGRr(27-106) (L52M-I69M), selenomethionine substituted (domain or fragment)
[4]
  stoichiometry N: 2
